The values below come from ChEMBL document CHEMBL1147410, “Binding of an imidazopyridoindole at imidazoline I2 receptors” (Bioorg Med Chem Lett, 2004).

A short description of assay [1]: Binding affinity for rat imidazoline I2 receptor from crude P2 membranes; 1-5.
In assay [2] the target is T1, Adrenergic receptor alpha-2 (Rattus norvegicus, UniProt P22086+P19328+P22909).
T1 sequence (P22086 whole entry): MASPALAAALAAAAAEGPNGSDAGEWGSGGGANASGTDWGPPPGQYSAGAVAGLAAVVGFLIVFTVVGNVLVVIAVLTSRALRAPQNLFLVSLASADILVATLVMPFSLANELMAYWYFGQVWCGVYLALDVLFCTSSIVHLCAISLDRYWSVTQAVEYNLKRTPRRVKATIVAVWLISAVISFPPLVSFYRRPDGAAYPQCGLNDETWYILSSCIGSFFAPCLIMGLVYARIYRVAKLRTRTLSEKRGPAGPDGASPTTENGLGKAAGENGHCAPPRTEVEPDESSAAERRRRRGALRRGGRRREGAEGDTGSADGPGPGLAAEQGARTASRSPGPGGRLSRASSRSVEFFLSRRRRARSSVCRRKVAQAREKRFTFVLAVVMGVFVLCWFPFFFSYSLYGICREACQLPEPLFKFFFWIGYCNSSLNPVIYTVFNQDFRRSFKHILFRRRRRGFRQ
T1 sequence (P19328 whole entry): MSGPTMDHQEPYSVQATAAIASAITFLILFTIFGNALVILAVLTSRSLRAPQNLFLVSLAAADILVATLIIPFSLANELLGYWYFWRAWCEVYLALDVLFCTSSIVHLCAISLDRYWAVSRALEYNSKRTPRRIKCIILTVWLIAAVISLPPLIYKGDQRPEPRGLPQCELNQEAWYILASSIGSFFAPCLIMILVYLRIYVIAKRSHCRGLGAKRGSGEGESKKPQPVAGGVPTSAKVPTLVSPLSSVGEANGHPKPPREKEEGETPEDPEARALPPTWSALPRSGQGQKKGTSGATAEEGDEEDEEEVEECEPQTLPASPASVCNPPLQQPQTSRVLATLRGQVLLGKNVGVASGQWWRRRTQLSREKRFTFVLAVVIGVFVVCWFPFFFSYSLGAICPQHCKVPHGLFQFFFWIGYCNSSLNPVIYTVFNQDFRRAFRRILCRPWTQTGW
T1 sequence (P22909 whole entry): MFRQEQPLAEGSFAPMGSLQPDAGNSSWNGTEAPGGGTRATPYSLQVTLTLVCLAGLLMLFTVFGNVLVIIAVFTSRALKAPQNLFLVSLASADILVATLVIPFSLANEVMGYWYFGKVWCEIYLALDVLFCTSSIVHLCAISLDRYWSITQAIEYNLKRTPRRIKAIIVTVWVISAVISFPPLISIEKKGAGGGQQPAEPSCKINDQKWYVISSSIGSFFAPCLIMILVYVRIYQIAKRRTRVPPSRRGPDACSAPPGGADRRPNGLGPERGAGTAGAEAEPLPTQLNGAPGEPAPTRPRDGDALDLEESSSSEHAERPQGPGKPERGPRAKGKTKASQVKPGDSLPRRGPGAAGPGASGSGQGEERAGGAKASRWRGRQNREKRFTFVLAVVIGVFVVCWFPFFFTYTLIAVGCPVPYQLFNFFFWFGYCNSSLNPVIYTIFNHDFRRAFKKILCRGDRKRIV
Description: Binding affinity for rat alpha-2 adrenergic receptor from crude P2 membranes.

A short description of assay [3]: Binding affinity for rat imidazoline I2 receptor from crude P2 membranes.
The nature of assay [4]: Binding affinity for rat imidazoline I2 receptor from crude P2 membranes; 350-880.

For `c1ccc(CCC2=NCCN2)cc1` [PHENYZOLINE], the Ki (usually a dissociation constant, usually derived from enzyme kinetics or from competition with a known ligand) in assay [1] came out at 5 nM.

Turning to `c1ccc2c3c([nH]c2c1)CNCC3` [TRYPTOLINE], the Ki in assay [2] turned out to be 0.71 µM; in assay [3], 9.4 nM.

As for `c1ccc2oc(C3=NCCN3)cc2c1`, the inhibition constant (Ki) is 4 µM in assay [2] and less than 10 nM in assay [3].

Consider `C(=C\c1ccccc1)/C1=NCCN1` [TRACIZOLINE], for which the Ki in assay [2] worked out at 7.413 µM; in assay [3], 2 nM.

For `c1ccc2c3c([nH]c2c1)C1=NCCN1CC3`, the Ki in assay [3] turned out to be 7.3 nM.

With `COc1ccc2c3c([nH]c2c1)CNCC3`, the Ki in assay [2] stood at 8.84 µM. In other words, the single-digit micromolar range.

`c1coc(C2=NCCN2)c1`: the Ki in assay [3] was determined as 2340 nM.

Compound `c1ccc(OCC2=NCCN2)cc1` came in with a Ki in assay [1] of 5 nM.

Consider `c1ccc2c(c1)CC(C1=NCCN1)O2` (stereo not drawn), for which the Ki in assay [3] is approximately 50 nM.

In turn, `c1ccc2oc(-c3ncc[nH]3)cc2c1` showed an inhibitory constant (Ki) in assay [4] of approximately 880 nM.
